Assay results: US20150306068A1, “COMPOUNDS AND RELATED METHODS FOR TREATMENT OF NEURODEGENERATIVE DISEASES” (priority 2013, published 2015)

What was measured:
[1] = test system: wild-type human tau; assay: Western blot of tau levels in HeLa cells transfected with wild-type human tau; format: cell-based; details: treated 24 hours; for phosphorylated (pS199-202) wild type tau level: HeLa cells transfected with wild-type human tau, various doses, pS199-202 antibody; for C-terminal tau level (Tau 46 antibody) / N-terminal tau level (Tau H-150 antibody): human tau transfected HeLa cells, wild type and P301L not distinguished
Description: (§1) Compounds effects on tau activity/level were determine by a previously described method (Jinwal et al J. Neurosci. 2009 Sep. 30; 29(39):12079-88). In brief, human tau transfected HeLa Cells were treated with Compounds for 24 hours. Cells were harvested by using MPER reagent containing protease inhibitor and phosphatase inhibitor. Samples were analyzed by western blot. pS199-202 antibody was used to detect phospho tau level. Total tau levels were detected by tau H-150 &/or tau 46 antibodies.
(§2) HeLa cells were transfected with wild-type human tau (A) and mutant P301L human tau (B) (FIG. 1). After 24 hours, cells were treated with either palmadorin M or beauvericin for 24 hours.

[2] = test system: mutant P301L human tau; assay: Western blot of tau levels in HeLa cells transfected with mutant P301L human tau; format: cell-based; details: treated 24 hours, various doses, pS199-202 antibody
Description: as §1, §2

`CC(C)[C@H]1OC(=O)[C@H](Cc2ccccc2)N(C)C(=O)[C@@H](C(C)C)OC(=O)[C@H](Cc2ccccc2)N(C)C(=O)[C@@H](C(C)C)OC(=O)[C@H](Cc2ccccc2)N(C)C1=O` [beauvericin] was tested, and the “phosphorylated (pS199-202) wild type tau level” value [1] was “potent reduction”, the “C-terminal tau level (Tau 46 antibody)” value [1] was “moderate change in tau level” and the “N-terminal tau level (Tau H-150 antibody)” value [1] was “increase in tau level”. The “phosphorylated (pS199-202) mutant P301L tau level” value [2] was “potent reduction”.
`C=C1CC[C@@H]2C(C)(C)CCC[C@]2(C)[C@@H]1CC/C(C)=C/C(=O)OC(CO)CO` [palmadorin M] was tested, and the “phosphorylated (pS199-202) wild type tau level” value [1] was “potent reduction”, the “C-terminal tau level (Tau 46 antibody)” value [1] was “moderate change in tau level” and the “N-terminal tau level (Tau H-150 antibody)” value [1] was “increase in tau level”. For the same molecule, the “phosphorylated (pS199-202) mutant P301L tau level” value [2] was “potent reduction”.
